Consider 8 compounds from DBAASP.

≈ marks a conversion by molar mass, not a printed value. Where only a bound is given, the exact number is not on record here.

Among the test systems are Listeria monocytogenes; Escherichia coli UB1005; Escherichia coli BW25113; Escherichia coli JW0013; Escherichia coli J2210; Escherichia coli JJ2489; Escherichia coli MC1041.
Holding throughout (assay): ≥ marks a high value that may be exact or a test limit, other limits are often not marked, values filed in µg/mL are converted to µM
Test [1] relates to Escherichia coli NCTC 10418.
For test [2], the system named is Candida albicans NCPF 1467.
Test [3] has as its system Staphylococcus aureus NCTC 10788.
For test [4], the system named is Staphylococcus epidermidis.
Test [5] relates to Staphylococcus aureus ATCC 25923.
Test [6] concerns Pseudomonas aeruginosa K799.
Test [7] has as its system Salmonella enterica subsp. enterica serovar Typhimurium ATCC 14028s.
Test [8] has as its system Enterococcus faecalis ATCC 29212.
For test [9], the system named is Staphylococcus aureus ATCC 33591.
Test [10] deals with Cryptococcus neoformans ATCC 32045.
Test [11] concerns Pseudomonas aeruginosa ATCC 10145.
For test [12], the system named is Escherichia coli ATCC 2592.
In test [13] the test system is Candida albicans ATCC 10231.
Test [14] concerns Salmonella enterica subsp. enterica serovar Typhimurium ATCC 14028.
Test [15] has as its system Escherichia coli ATCC 25922.
Test [16] concerns Pseudomonas aeruginosa ATCC 27853.
Test [17] relates to Klebsiella pneumoniae ATCC 700603.
Test [18] concerns Escherichia coli BW25113 ΔsbmA.
Test [19] relates to Acinetobacter baumannii ATCC 19606.
Test [20] has as its system Salmonella typhimurium SL1344.
For test [21], the system named is Escherichia coli JW2778 ΔygdD.
In test [22] the test system is Salmonella enterica subsp. enterica serovar Enteritidis MH91989.
Test [23] concerns Escherichia coli JW0368 ΔsbmA.

Regarding `CC[C@H](C)[C@H](NC(=O)[C@H](C)NC(=O)[C@H](Cc1cnc[nH]1)NC(=O)[C@@H]1CCCN1C(=O)[C@@H](NC(=O)[C@H](CC(C)C)NC(=O)[C@H](CO)NC(=O)[C@H](Cc1ccccc1)NC(=O)[C@H](CC(C)C)NC(=O)[C@@H](N)Cc1ccccc1)[C@@H](C)CC)C(=O)N[C@@H](CO)C(=O)NCC(=O)N[C@@H](CC(C)C)C(=O)N[C@H](C(=O)N[C@@H](CO)C(=O)N[C@@H](C)C(=O)N[C@@H](Cc1ccccc1)C(=O)N[C@H](C=O)CCCCN)[C@@H](C)CC` [FLFSLIPHAISGLISAFK], the MIC in test [1] is no less than 250 µM; in [2], 16 µM (≈ 31.1 µg/mL); in [3], 8 µM (≈ 15.6 µg/mL).
As for `CC[C@H](C)[C@@H]1NC(=O)[C@H](C(C)C)NC(=O)[C@H](C(C)C)NC(=O)[C@H]([C@@H](C)CC)NC(=O)[C@@H]2CCCN2C(=O)[C@@H](NC(=O)[C@H](CCCCN)NC(=O)[C@@H](N)CCCCN)CSSC[C@@H](C(=O)N[C@@H](CCCCN)C(=O)O)NC(=O)[C@H](C(C)C)NC(=O)[C@H](CCCN=C(N)N)NC1=O` [KKCPIVVIRVCK], the minimum inhibitory concentration (MIC) is no less than 46.2 µM in test [4]; greater than 46.2 µM in [5]; no less than 46.2 µM in test [6]; 11.5 µM (≈ 16 µg/mL) in the test on Listeria monocytogenes; 11.5 µM (≈ 16 µg/mL) against Escherichia coli UB1005; 23.1 µM (≈ 32 µg/mL) in test [7]. Further, the MIC in test [8] was greater than 46.2 µM.
Regarding `CC(C)C[C@H](NC(=O)[C@H](CCCCN)NC(=O)[C@H](CCCCN)NC(=O)[C@H](CC(C)C)NC(=O)[C@H](CC(C)C)NC(=O)[C@H](CCCCN)NC(=O)[C@H](CCCCN)NC(=O)[C@H](CC(C)C)NC(=O)[C@H](CC(C)C)NC(=O)[C@H](CCCCN)NC(=O)[C@H](CCCCN)NC(=O)[C@H](CC(C)C)NC(=O)[C@H](CC(C)C)NC(=O)[C@H](CCCCN)NC(=O)[C@H](CCCCN)NC(=O)[C@H](CC(C)C)NC(=O)[C@H](CC(C)C)NC(=O)[C@H](CCCCN)NC(=O)[C@H](CCCCN)NC(=O)[C@H](CC(C)C)NC(=O)[C@H](CC(C)C)NC(=O)[C@H](CCCCN)NC(=O)[C@H](CCCCN)NC(=O)[C@@H](N)CC(C)C)C(=O)O` [LKKLLKKLLKKLLKKLLKKLLKKL], the MIC in test [9] is no less than 85.8 µM; in test [10], no less than 42.9 µM; in [11], 22.3 µM (≈ 65 µg/mL); in [12], 30.2 µM (≈ 88 µg/mL); in [13] it was 121 µM (≈ 354 µg/mL).
The like results for `CC(C)C[C@H](NC(=O)[C@H](CCCCN)NC(=O)[C@H](CC(C)C)NC(=O)[C@H](CCCCN)NC(=O)[C@H](CC(C)C)NC(=O)[C@H](CCCCN)NC(=O)[C@H](CC(C)C)NC(=O)[C@H](CCCCN)NC(=O)[C@H](CC(C)C)NC(=O)[C@H](CCCCN)NC(=O)[C@H](CC(C)C)NC(=O)[C@H](CCCCN)NC(=O)[C@H](CC(C)C)NC(=O)[C@H](CCCCN)NC(=O)[C@H](CC(C)C)NC(=O)[C@H](CCCCN)NC(=O)[C@H](CC(C)C)NC(=O)[C@H](CCCCN)NC(=O)[C@H](CC(C)C)NC(=O)[C@H](CCCCN)NC(=O)[C@@H](N)CC(C)C)C(=O)N[C@@H](CCCCN)C(=O)O` [LKLKLKLKLKLKLKLKLKLKLK] were, in that order, no less than 93.5 µM, 16.7 µM (≈ 44.5 µg/mL), 23.2 µM (≈ 62 µg/mL), no less than 46.8 µM and 132 µM (≈ 354 µg/mL).
In the case of `CC[C@H](C)[C@H](NC(=O)[C@@H]1CCCN1)C(=O)N[C@@H](CCCN=C(N)N)C(=O)N[C@@H](CCCN=C(N)N)C(=O)N1CCC[C@H]1C(=O)N1CCC[C@H]1C(=O)N[C@H](C(=O)N[C@@H](CCCN=C(N)N)C(=O)N1CCC[C@H]1C(=O)N1CCC[C@H]1C(=O)N[C@@H](Cc1ccccc1)C(=O)N[C@@H](Cc1ccc(O)cc1)C(=O)N1CCC[C@H]1C(=O)N1CCC[C@H]1C(=O)N[C@@H](Cc1ccccc1)C(=O)N[C@@H](CCCN=C(N)N)C(=O)N1CCC[C@H]1C(=O)N1CCC[C@H]1C(=O)N[C@H](C(=O)N[C@@H](CCCN=C(N)N)C(=O)N1CCC[C@H]1C(=O)O)[C@@H](C)CC)[C@@H](C)CC` [PIRRPPIRPPFYPPFRPPIRP], the MIC was greater than 64 µM in test [14]; no less than 64 µM in the test on Escherichia coli BW25113; greater than 64 µM in test [15]; greater than 64 µM in [16]; greater than 64 µM in test [5]; greater than 64 µM in [17]. The figures for the MIC in test [18] and in test [19] were no less than 64 µM and greater than 64 µM, respectively.
Turning to `CC[C@H](C)[C@H](NC(=O)[C@@H]1CCCN1C(=O)[C@@H]1CCCN1C(=O)[C@H](CCCN=C(N)N)NC(=O)[C@H](Cc1ccccc1)NC(=O)[C@@H](N)CCCN=C(N)N)C(=O)N[C@@H](CCCN=C(N)N)C(=O)N[C@@H](CCCN=C(N)N)C(=O)N1CCC[C@H]1C(=O)N1CCC[C@H]1C(=O)N[C@H](C(=O)N[C@@H](CCCN=C(N)N)C(=O)N1CCC[C@H]1C(=O)N1CCC[C@H]1C(=O)N[C@@H](Cc1ccccc1)C(=O)O)[C@@H](C)CC` [RFRPPIRRPPIRPPF], the MIC in test [14] is greater than 64 µM; in the test on Escherichia coli BW25113 it was no less than 64 µM; in test [15], 64 µM (≈ 122 µg/mL); in test [16] it was greater than 64 µM; in test [5] it was greater than 64 µM; in test [17], greater than 64 µM. In addition, the MIC in [18] was no less than 64 µM; in [19], greater than 64 µM.
On to `CC[C@H](C)[C@H](NC(=O)[C@H](CCCN=C(N)N)NC(=O)[C@@H](N)CCCN=C(N)N)C(=O)N[C@@H](CCCCN)C(=O)N[C@@H](CCCCN)C(=O)N[C@@H](CCCN=C(N)N)C(=O)N1CCC[C@H]1C(=O)N1CCC[C@H]1C(=O)N[C@@H](CCCN=C(N)N)C(=O)N[C@@H](CC(C)C)C(=O)N1CCC[C@H]1C(=O)N[C@@H](CCCN=C(N)N)C(=O)N1CCC[C@H]1C(=O)N[C@@H](CCCN=C(N)N)C(=O)N1CCC[C@H]1C(=O)N[C@@H](CCCN=C(N)N)C(=O)O` [RRIKKRPPRLPRPRPR], for which the MIC in the test with Escherichia coli BW25113 was 0.078 µM (≈ 0.162 µg/mL); in test [20], 0.12 µM (≈ 0.25 µg/mL); in the test on Escherichia coli JW0013 it was 0.06 µM (≈ 0.125 µg/mL); in test [21], 0.12 µM (≈ 0.25 µg/mL); in the test with Escherichia coli J2210, 0.157 µM (≈ 0.326 µg/mL); in test [22], 0.12 µM (≈ 0.25 µg/mL). Besides, the MIC in test [23] came to 0.06 µM (≈ 0.125 µg/mL); against Escherichia coli JJ2489, 0.12 µM (≈ 0.25 µg/mL); against Escherichia coli MC1041, 0.06 µM (≈ 0.125 µg/mL).
Take `CC[C@H](C)[C@H](NC(=O)[C@H](CCCN=C(N)N)NC(=O)[C@@H](N)CCCN=C(N)N)C(=O)N[C@@H](CCCCN)C(=O)N1CCC[C@H]1C(=O)N[C@@H](CCCN=C(N)N)C(=O)N1CCC[C@H]1C(=O)N1CCC[C@H]1C(=O)N[C@@H](CCCN=C(N)N)C(=O)N[C@@H](CC(C)C)C(=O)N1CCC[C@H]1C(=O)N[C@@H](CCCN=C(N)N)C(=O)N1CCC[C@H]1C(=O)N[C@@H](CCCN=C(N)N)C(=O)N1CCC[C@H]1C(=O)N[C@@H](CCCCN)C(=O)O` [RRIKPRPPRLPRPRPK]: the MIC against Escherichia coli BW25113 was 0.06 µM (≈ 0.121 µg/mL); in test [20], 0.12 µM (≈ 0.242 µg/mL); with Escherichia coli JW0013, 0.06 µM (≈ 0.121 µg/mL); in test [21], 0.12 µM (≈ 0.242 µg/mL); with Escherichia coli J2210, 0.12 µM (≈ 0.242 µg/mL); in test [22], 0.157 µM (≈ 0.317 µg/mL). Further, the results for the MIC (in [23]; against Escherichia coli JJ2489; against Escherichia coli MC1041) were 0.06 µM (≈ 0.121 µg/mL), 0.12 µM (≈ 0.242 µg/mL) and 0.06 µM (≈ 0.121 µg/mL), respectively.

In general, MIC refers to the lowest concentration found to suppress growth. Lower therefore signals greater potency.
